Conditions: Hot wire method

FC(F)(F)/C=C/Cl [(E)-1-chloro-3,3,3-trifluoroprop-1-ene]
Conditions	thermal conductivity [W/m/K]
422.34 K, 6615 kPa, Liquid	0.05507
422.35 K, 1562 kPa, Fluid (supercritical or subcritical phases)	0.02132
422.37 K, 5710 kPa, Liquid	0.054
422.38 K, 5711 kPa, Liquid	0.05406
422.4 K, 4942 kPa, Liquid	0.05308
422.42 K, 802 kPa, Fluid (supercritical or subcritical phases)	0.02084
422.42 K, 1401 kPa, Fluid (supercritical or subcritical phases)	0.0211
422.42 K, 4947 kPa, Liquid	0.05316
422.43 K, 1403 kPa, Fluid (supercritical or subcritical phases)	0.02113
422.44 K, 4300 kPa, Liquid	0.05228
422.44 K, 4307 kPa, Liquid	0.05231
422.45 K, 3760 kPa, Liquid	0.05158
422.45 K, 3761 kPa, Liquid	0.05162
422.48 K, 2616 kPa, Liquid	0.05022
422.48 K, 2911 kPa, Liquid	0.05073
422.48 K, 3308 kPa, Liquid	0.05108
422.48 K, 3310 kPa, Liquid	0.05105
422.49 K, 1222 kPa, Fluid (supercritical or subcritical phases)	0.02095
422.49 K, 2914 kPa, Liquid	0.05068
422.5 K, 1220 kPa, Fluid (supercritical or subcritical phases)	0.02096
422.52 K, 28114 kPa, Liquid	0.07065
422.54 K, 8781 kPa, Liquid	0.05725
422.54 K, 28086 kPa, Liquid	0.07055
422.55 K, 7612 kPa, Liquid	0.0561
422.55 K, 8782 kPa, Liquid	0.05725
422.56 K, 28121 kPa, Liquid	0.0704
422.57 K, 1031 kPa, Fluid (supercritical or subcritical phases)	0.02086
422.57 K, 1032 kPa, Fluid (supercritical or subcritical phases)	0.02088
422.57 K, 6610 kPa, Liquid	0.0551
422.58 K, 6615 kPa, Liquid	0.05511
422.58 K, 28093 kPa, Liquid	0.07032
422.61 K, 5714 kPa, Liquid	0.05406
422.62 K, 5709 kPa, Liquid	0.05406
422.66 K, 4943 kPa, Liquid	0.05316
422.66 K, 4946 kPa, Liquid	0.05333
422.67 K, 800 kPa, Fluid (supercritical or subcritical phases)	0.02086
422.69 K, 11667 kPa, Liquid	0.05975
422.7 K, 4304 kPa, Liquid	0.05243
422.7 K, 4305 kPa, Liquid	0.05239
422.71 K, 3758 kPa, Liquid	0.05174
422.71 K, 3761 kPa, Liquid	0.05177
422.72 K, 20061 kPa, Liquid	0.0657
422.73 K, 3307 kPa, Liquid	0.0512
422.73 K, 3310 kPa, Liquid	0.05125
422.74 K, 10145 kPa, Liquid	0.0585
422.78 K, 17484 kPa, Liquid	0.06408
422.79 K, 8779 kPa, Liquid	0.05724
422.79 K, 8783 kPa, Liquid	0.05727
422.79 K, 17485 kPa, Liquid	0.06404
422.79 K, 25690 kPa, Liquid	0.06898
422.8 K, 7613 kPa, Liquid	0.05618
422.8 K, 7618 kPa, Liquid	0.05616
422.8 K, 25708 kPa, Liquid	0.06904
422.8 K, 28111 kPa, Liquid	0.07046
422.8 K, 28112 kPa, Liquid	0.07051
422.82 K, 15379 kPa, Liquid	0.06258
422.83 K, 6608 kPa, Liquid	0.05508
422.83 K, 6614 kPa, Liquid	0.05515
422.83 K, 28116 kPa, Liquid	0.07034
422.84 K, 15382 kPa, Liquid	0.06256
422.84 K, 28116 kPa, Liquid	0.07035
422.86 K, 22725 kPa, Liquid	0.06729
422.87 K, 5712 kPa, Liquid	0.0541
422.87 K, 5716 kPa, Liquid	0.05417
422.87 K, 22727 kPa, Liquid	0.06729
422.89 K, 13389 kPa, Liquid	0.06114
422.89 K, 13396 kPa, Liquid	0.0611
422.92 K, 4948 kPa, Liquid	0.05329
422.93 K, 4948 kPa, Liquid	0.05326
422.93 K, 11677 kPa, Liquid	0.05979
422.94 K, 11666 kPa, Liquid	0.05974
422.96 K, 4303 kPa, Liquid	0.05247
422.96 K, 4305 kPa, Liquid	0.05253
422.96 K, 20042 kPa, Liquid	0.06564
422.97 K, 20051 kPa, Liquid	0.06568
423 K, 10141 kPa, Liquid	0.05847
423 K, 10146 kPa, Liquid	0.05853
423 K, 25690 kPa, Liquid	0.06899
423.02 K, 28110 kPa, Liquid	0.07042
423.03 K, 28120 kPa, Liquid	0.07037
423.04 K, 17472 kPa, Liquid	0.06399
423.04 K, 17483 kPa, Liquid	0.06401
423.05 K, 25698 kPa, Liquid	0.06896
423.06 K, 8781 kPa, Liquid	0.05726
423.06 K, 8783 kPa, Liquid	0.05728
423.07 K, 7608 kPa, Liquid	0.05614
423.07 K, 7616 kPa, Liquid	0.05619
423.07 K, 15379 kPa, Liquid	0.06256
423.08 K, 15382 kPa, Liquid	0.06257
423.1 K, 6613 kPa, Liquid	0.05516
423.11 K, 6611 kPa, Liquid	0.05515
423.11 K, 22703 kPa, Liquid	0.06725
423.11 K, 28104 kPa, Liquid	0.07029
423.12 K, 22728 kPa, Liquid	0.06757
423.12 K, 28121 kPa, Liquid	0.07049
423.14 K, 5716 kPa, Liquid	0.05419
423.15 K, 5712 kPa, Liquid	0.0542
423.15 K, 13390 kPa, Liquid	0.06109
423.15 K, 13399 kPa, Liquid	0.06114
423.2 K, 4943 kPa, Liquid	0.05335
423.2 K, 4945 kPa, Liquid	0.0533
423.2 K, 11667 kPa, Liquid	0.05975
423.21 K, 11671 kPa, Liquid	0.05977
423.21 K, 20041 kPa, Liquid	0.06545
423.21 K, 20058 kPa, Liquid	0.06566
423.26 K, 25692 kPa, Liquid	0.06895
423.26 K, 25702 kPa, Liquid	0.06897
423.27 K, 10146 kPa, Liquid	0.05849
423.28 K, 10147 kPa, Liquid	0.05852
423.29 K, 17476 kPa, Liquid	0.06396
423.3 K, 17478 kPa, Liquid	0.064
423.3 K, 28106 kPa, Liquid	0.07034
423.31 K, 28126 kPa, Liquid	0.07033
423.32 K, 8771 kPa, Liquid	0.05728
423.33 K, 8783 kPa, Liquid	0.05728
423.35 K, 7611 kPa, Liquid	0.05616
423.35 K, 7616 kPa, Liquid	0.05621
423.35 K, 15369 kPa, Liquid	0.06251
423.35 K, 15382 kPa, Liquid	0.06259
423.37 K, 22716 kPa, Liquid	0.06724
423.37 K, 22722 kPa, Liquid	0.06728
423.38 K, 6613 kPa, Liquid	0.0552
423.38 K, 28103 kPa, Liquid	0.07024
423.39 K, 28113 kPa, Liquid	0.07028
423.4 K, 6606 kPa, Liquid	0.05518
423.43 K, 13394 kPa, Liquid	0.06111
423.44 K, 5711 kPa, Liquid	0.05425
423.44 K, 5715 kPa, Liquid	0.05429
423.44 K, 13394 kPa, Liquid	0.06111
423.48 K, 20043 kPa, Liquid	0.06561
423.48 K, 20053 kPa, Liquid	0.06564
423.49 K, 11667 kPa, Liquid	0.05991
423.49 K, 11670 kPa, Liquid	0.05977
423.54 K, 25699 kPa, Liquid	0.06893
423.55 K, 25702 kPa, Liquid	0.06894
423.56 K, 10145 kPa, Liquid	0.05848
423.56 K, 10147 kPa, Liquid	0.05849
423.57 K, 17456 kPa, Liquid	0.06393
423.57 K, 17477 kPa, Liquid	0.0642
423.6 K, 28105 kPa, Liquid	0.07025
423.62 K, 8777 kPa, Liquid	0.05731
423.62 K, 28121 kPa, Liquid	0.07026
423.63 K, 8770 kPa, Liquid	0.05731
423.63 K, 15380 kPa, Liquid	0.06255
423.64 K, 15380 kPa, Liquid	0.06256

Reference: the NIST ThermoML archive (doi:10.1021/acs.jced.7b00106)
